System: MV-4-11 cells
Test: Gene expression microarray analysis (Affymetrix PrimeView) and GSEA
Type: cell-based, human
Design: RFU PODN (11730768_x_at) / Fold change /veh PODN (11730768_x_at) / RFU LINC00158 (11744669_a_at) / Fold change /veh LINC00158 (11744669_a_at) / RFU DUSP10 (11751237_a_at) / Fold change /veh DUSP10 (11751237_a_at) / RFU ID3 (11757404_x_at) / Fold change /veh ID3 (11757404_x_at) / RFU PLEKHG5 (11737974_s_at) / Fold change /veh PLEKHG5 (11737974_s_at) / RFU LRRC4B (11730491_at) / Fold change /veh LRRC4B (11730491_at) / RFU GIMAP4 (11747438_a_at) / Fold change /veh GIMAP4 (11747438_a_at) / RFU KRT8 (11758183_x_at) / Fold change /veh KRT8 (11758183_x_at) / RFU CNN1 (11734310_a_at) / Fold change /veh CNN1 (11734310_a_at) / RFU VPS37D (11726825_at) / Fold change /veh VPS37D (11726825_at) / RFU C10orf10 (11716522_x_at) / Fold change /veh C10orf10 (11716522_x_at) / RFU KIR2DL2 /// KIR2DL4 /// KIR2DL5A /// KIR2DL5B /// KIR2DS1 /// KIR2DS2 /// KIR2DS3 /// KIR2DS4 /// KIR3DL3 /// KIR3DL3 /// KIR3DS1 (11738374_at) / Fold change /veh KIR2DL2 /// KIR2DL4 /// KIR2DL5A /// KIR2DL5B /// KIR2DS1 /// KIR2DS2 /// KIR2DS3 /// KIR2DS4 /// KIR3DL3 /// KIR3DL3 /// KIR3DS1 (11738374_at) / RFU C1QL1 (11718748_at) / Fold change /veh C1QL1 (11718748_at) / RFU TMPRSS4 (11747572_a_at) / Fold change /veh TMPRSS4 (11747572_a_at) / RFU HAMP (11756126_x_at) / Fold change /veh HAMP (11756126_x_at) / RFU RNFT2 (11725882_a_at) / Fold change /veh RNFT2 (11725882_a_at) / RFU NR4A2 (11747474_a_at) / Fold change /veh NR4A2 (11747474_a_at) / RFU ABCC12 (11746883_a_at) / Fold change /veh ABCC12 (11746883_a_at) / RFU TMEM136 (11760407_x_at) / Fold change /veh TMEM136 (11760407_x_at) / RFU CLDN22 /// WWC2 (11732394_at) / Fold change /veh CLDN22 /// WWC2 (11732394_at) / RFU HLA-DPB1 (11760878_x_at) / Fold change /veh HLA-DPB1 (11760878_x_at) / RFU SPINT1 (11716480_a_at) / Fold change /veh SPINT1 (11716480_a_at) / RFU GAP43 (11754022_s_at) / Fold change /veh GAP43 (11754022_s_at) / RFU A4GNT (11735810_at) / Fold change /veh A4GNT (11735810_at) / RFU PRB3 (11715151_x_at) / Fold change /veh PRB3 (11715151_x_at) / RFU TUBB4B (11761932_at) / Fold change /veh TUBB4B (11761932_at) / RFU CAPN14 (11732068_a_at) / Fold change /veh CAPN14 (11732068_a_at) / RFU TMCC2 (11721928_a_at) / Fold change /veh TMCC2 (11721928_a_at) / RFU IRGQ (11745062_a_at) / Fold change /veh IRGQ (11745062_a_at) / RFU FAM174B (11720279_a_at) / Fold change /veh FAM174B (11720279_a_at) / RFU TMPRSS4 (11748680_a_at) / Fold change /veh TMPRSS4 (11748680_a_at) / RFU FAM212B (11763350_a_at) / Fold change /veh FAM212B (11763350_a_at) / RFU PLEKHG5 (11743358_a_at) / Fold change /veh PLEKHG5 (11743358_a_at) / RFU ZSCAN30 (11745921_a_at) / Fold change /veh ZSCAN30 (11745921_a_at) / RFU CMKLR1 (11741424_a_at) / Fold change /veh CMKLR1 (11741424_a_at) / RFU LOC101060620 /// MAPK8IP1 (11723275_at) / Fold change /veh LOC101060620 /// MAPK8IP1 (11723275_at) / RFU SPTSSB (11747773_x_at) / Fold change /veh SPTSSB (11747773_x_at) / RFU PRSS12 (11739890_at) / Fold change /veh PRSS12 (11739890_at) / RFU BIN1 (11741810_x_at) / Fold change /veh BIN1 (11741810_x_at) / RFU WNT11 (11732464_a_at) / Fold change /veh WNT11 (11732464_a_at) / RFU C10orf10 (11716521_a_at) / Fold change /veh C10orf10 (11716521_a_at) / RFU C5orf56 (11738089_at) / Fold change /veh C5orf56 (11738089_at) / RFU CYB561 (11721691_x_at) / Fold change /veh CYB561 (11721691_x_at) / RFU ANKRD19P (11752326_a_at) / Fold change /veh ANKRD19P (11752326_a_at) / RFU OR2T12 /// OR2T33 /// OR2T8 (11738714_s_at) / Fold change /veh OR2T12 /// OR2T33 /// OR2T8 (11738714_s_at) / RFU VCAN (11748164_a_at) / Fold change /veh VCAN (11748164_a_at) / RFU JSRP1 (11732532_at) / Fold change /veh JSRP1 (11732532_at) / RFU KRTAP10-11 (11738290_x_at) / Fold change /veh KRTAP10-11 (11738290_x_at) / RFU MYO3A (11730013_a_at) / Fold change /veh MYO3A (11730013_a_at) / RFU EBF3 (11725865_a_at) / Fold change /veh EBF3 (11725865_a_at) / RFU CAMK2N1 (11719241_x_at) / Fold change /veh CAMK2N1 (11719241_x_at) / RFU C5orf56 (11738088_a_at) / Fold change /veh C5orf56 (11738088_a_at) / RFU OLFML3 (11715873_a_at) / Fold change /veh OLFML3 (11715873_a_at) / RFU LOC100653217 /// NTM (11731650_a_at) / Fold change /veh LOC100653217 /// NTM (11731650_a_at) / RFU MAPK11 (11762145_a_at) / Fold change /veh MAPK11 (11762145_a_at) / RFU FIZ1 (11724087_x_at) / Fold change /veh FIZ1 (11724087_x_at) / RFU OASL (11726364_x_at) / Fold change /veh OASL (11726364_x_at) / RFU SOX15 (11748057_x_at) / Fold change /veh SOX15 (11748057_x_at) / RFU CD79A (11719716_a_at) / Fold change /veh CD79A (11719716_a_at) / RFU HIST1H1D (11736915_at) / Fold change /veh HIST1H1D (11736915_at) / RFU CASKIN2 (11723855_a_at) / Fold change /veh CASKIN2 (11723855_a_at) / RFU LOC730098 (11760151_x_at) / Fold change /veh LOC730098 (11760151_x_at) / RFU OR4N2 (11742367_at) / Fold change /veh OR4N2 (11742367_at) / RFU PRRT2 (11749266_a_at) / Fold change /veh PRRT2 (11749266_a_at) / RFU SNX32 (11753110_a_at) / Fold change /veh SNX32 (11753110_a_at) / RFU CDHR5 (11726645_a_at) / Fold change /veh CDHR5 (11726645_a_at) / RFU RCAN1 (11760418_a_at) / Fold change /veh RCAN1 (11760418_a_at) / RFU FAM167A (11723789_a_at) / Fold change /veh FAM167A (11723789_a_at) / RFU FAM26E (11764081_at) / Fold change /veh FAM26E (11764081_at) / RFU ISYNA1 (11749810_s_at) / Fold change /veh ISYNA1 (11749810_s_at) / RFU ACY1 (11761880_at) / Fold change /veh ACY1 (11761880_at) / RFU 11764098_at / Fold change /veh 11764098_at / RFU SAMD14 (11745864_x_at) / Fold change /veh SAMD14 (11745864_x_at) / RFU NPB (11741838_a_at) / Fold change /veh NPB (11741838_a_at) / RFU TMPRSS6 (11731388_a_at) / Fold change /veh TMPRSS6 (11731388_a_at) / RFU KRTAP10-2 (11738614_at) / Fold change /veh KRTAP10-2 (11738614_at) / RFU ARHGAP8 /// PRR5-ARHGAP8 (11727945_x_at) / Fold change /veh ARHGAP8 /// PRR5-ARHGAP8 (11727945_x_at) / RFU KRTAP5-7 /// NADSYN1 (11734609_at) / Fold change /veh KRTAP5-7 /// NADSYN1 (11734609_at) / RFU RASL12 (11751679_a_at) / Fold change /veh RASL12 (11751679_a_at) / RFU CDKN2B (11736163_a_at) / Fold change /veh CDKN2B (11736163_a_at) / RFU PRF1 (11729649_at) / Fold change /veh PRF1 (11729649_at) / RFU, ZNF638 /// ZNF638-IT1 / Fold change vs veh, ZNF638 /// ZNF638-IT1 / RFU, PANK3 / Fold change vs veh, PANK3 / RFU, SH3YL1 / Fold change vs veh, SH3YL1 / RFU, ZEB2 / Fold change vs veh, ZEB2 / RFU, NRIP1 / Fold change vs veh, NRIP1 / RFU, PTTG1IP / Fold change vs veh, PTTG1IP / RFU, CAPN2 / Fold change vs veh, CAPN2 / RFU, MED14 / Fold change vs veh, MED14 / RFU, SNORA58 / Fold change vs veh, SNORA58 / RFU, C1orf63 / Fold change vs veh, C1orf63 / RFU, LRRFIP1 / Fold change vs veh, LRRFIP1 / RFU, NDUFAF7 / Fold change vs veh, NDUFAF7 / RFU, SLC12A2 / Fold change vs veh, SLC12A2 / RFU, IBTK / Fold change vs veh, IBTK / RFU, ESF1 / Fold change vs veh, ESF1 / Fold change vs veh, TMEM50B / RFU, TAOK1 / Fold change vs veh, TAOK1 / RFU, ACBD3 / Fold change vs veh, ACBD3 / RFU, TMA16 / Fold change vs veh, TMA16 / RFU, RWDD3 / Fold change vs veh, RWDD3 / RFU, BCAT1 / Fold change vs veh, BCAT1 / RFU, EDEM3 / Fold change vs veh, EDEM3 / RFU, TMEM33 / Fold change vs veh, TMEM33 / RFU, WDR75 / Fold change vs veh, WDR75 / RFU, AHCTF1 / Fold change vs veh, AHCTF1 / RFU, TFRC / Fold change vs veh, TFRC / RFU, ZDHHC17 / Fold change vs veh, ZDHHC17 / RFU, NOM1 / Fold change vs veh, NOM1 / RFU, ARL8B / Fold change vs veh, ARL8B / RFU, ZBTB11 / Fold change vs veh, ZBTB11 / RFU, TAMM41 / Fold change vs veh, TAMM41 / RFU, KIAA1704 /// LOC100996395 / Fold change vs veh, KIAA1704 /// LOC100996395 / RFU, ING1 / Fold change vs veh, ING1 / RFU, TRMT61B / Fold change vs veh, TRMT61B / RFU, FUBP3 / Fold change vs veh, FUBP3 / RFU, TP53 / Fold change vs veh, TP53 / RFU, TNKS2 / Fold change vs veh, TNKS2 / RFU, ZFP14 / Fold change vs veh, ZFP14 / RFU, ACTR2 / Fold change vs veh, ACTR2 / RFU, PPP3R1 / Fold change vs veh, PPP3R1 / RFU, PIK3R1 / Fold change vs veh, PIK3R1 / RFU, HNRNPA1 / Fold change vs veh, HNRNPA1 / RFU, RNF170 / Fold change vs veh, RNF170 / RFU, ZNF28 / Fold change vs veh, ZNF28 / RFU, RNGTT / Fold change vs veh, RNGTT / RFU, OGT / Fold change vs veh, OGT / RFU, BRD1 / Fold change vs veh, BRD1 / RFU, MARS / Fold change vs veh, MARS / RFU, ZNF655 / Fold change vs veh, ZNF655 / RFU, FAHD1 / Fold change vs veh, FAHD1 / RFU, BDP1 / Fold change vs veh, BDP1 / RFU, LRRCC1 / Fold change vs veh, LRRCC1 / RFU, ARID1A / Fold change vs veh, ARID1A / RFU, ZNF146 / Fold change vs veh, ZNF146 / RFU, ZNF330 / Fold change vs veh, ZNF330 / RFU, GPN3 / Fold change vs veh, GPN3 / RFU, C9orf123 / Fold change vs veh, C9orf123 / RFU, N4BP2L2 / Fold change vs veh, N4BP2L2 / RFU, ARFIP1 / Fold change vs veh, ARFIP1 / RFU, FAM179B / Fold change vs veh, FAM179B / RFU, BCL10 / Fold change vs veh, BCL10 / RFU, UHRF1BP1L / Fold change vs veh, UHRF1BP1L / RFU, BET1 / Fold change vs veh, BET1 / RFU, CNOT2 / Fold change vs veh, CNOT2 / RFU, ZNF268 / Fold change vs veh, ZNF268 / Fold change vs veh, ZNF507 / RFU, DGCR2 / Fold change vs veh, DGCR2 / RFU, WDSUB1 / Fold change vs veh, WDSUB1 / Fold change vs veh, HSP90B1 /// MIR3652 / RFU, ADSS / Fold change vs veh, ADSS / RFU, GK / Fold change vs veh, GK / RFU, ZNF148 / Fold change vs veh, ZNF148 / RFU, TAF9 / Fold change vs veh, TAF9 / RFU, SLC1A5 / Fold change vs veh, SLC1A5 / RFU, SLMO2 / Fold change vs veh, SLMO2 / RFU, ABCC4 / Fold change vs veh, ABCC4 / RFU, LOC101060439 /// RAP1B / Fold change vs veh, LOC101060439 /// RAP1B / RFU, RFX7 / Fold change vs veh, RFX7 / RFU, GTPBP10 / Fold change vs veh, GTPBP10 / RFU, CNEP1R1 / Fold change vs veh, CNEP1R1 / RFU, BIVM-ERCC5 /// ERCC5 / Fold change vs veh, BIVM-ERCC5 /// ERCC5 / RFU, ILF3 / Fold change vs veh, ILF3 / RFU 11762660_at / Fold change /veh 11762660_at / RFU VCAN (11757783_s_at) / Fold change /veh VCAN (11757783_s_at) / RFU DDX43 (11728927_at) / Fold change /veh DDX43 (11728927_at) / RFU KRT8 (11758188_x_at) / Fold change /veh KRT8 (11758188_x_at) / RFU NKD1 (11759106_at) / Fold change /veh NKD1 (11759106_at) / RFU SRD5A1 (11742802_a_at) / Fold change /veh SRD5A1 (11742802_a_at) / RFU TPSAB1 /// TPSB2 (11721975_s_at) / Fold change /veh TPSAB1 /// TPSB2 (11721975_s_at) / RFU GSTM3 (11746129_a_at) / Fold change /veh GSTM3 (11746129_a_at) / RFU IL23R (11737362_x_at) / Fold change /veh IL23R (11737362_x_at) / RFU TMEM51 (11727254_a_at) / Fold change /veh TMEM51 (11727254_a_at) / RFU PIWIL2 (11732686_x_at) / Fold change /veh PIWIL2 (11732686_x_at) / RFU ORM1 (11744905_x_at) / Fold change /veh ORM1 (11744905_x_at) / RFU CCDC152 (11743942_at) / Fold change /veh CCDC152 (11743942_at) / RFU ECM1 (11717891_a_at) / Fold change /veh ECM1 (11717891_a_at) / RFU IL23R (11748794_a_at) / Fold change /veh IL23R (11748794_a_at) / RFU TNFAIP8L3 (11732012_x_at) / Fold change /veh TNFAIP8L3 (11732012_x_at) / RFU MBOAT4 (11741988_at) / Fold change /veh MBOAT4 (11741988_at) / RFU 11764193_at / Fold change /veh 11764193_at / RFU TMEM53 (11763286_at) / Fold change /veh TMEM53 (11763286_at) / RFU MAGEB2 (11727129_at) / Fold change /veh MAGEB2 (11727129_at) / RFU TMEM200A (11744735_a_at) / Fold change /veh TMEM200A (11744735_a_at) / RFU CCDC152 (11751479_a_at) / Fold change /veh CCDC152 (11751479_a_at) / RFU FAM211A (11726209_a_at) / Fold change /veh FAM211A (11726209_a_at) / RFU RGS16 (11746705_a_at) / Fold change /veh RGS16 (11746705_a_at) / RFU VCAN (11755009_s_at) / Fold change /veh VCAN (11755009_s_at) / RFU RHOB (11743442_s_at) / Fold change /veh RHOB (11743442_s_at) / RFU RGS16 (11720943_a_at) / Fold change /veh RGS16 (11720943_a_at) / RFU RGS16 (11720944_at) / Fold change /veh RGS16 (11720944_at) / RFU, VPS4B / Fold change vs veh, VPS4B / RFU, CREB1 / Fold change vs veh, CREB1 / RFU, DNAJC13 / Fold change vs veh, DNAJC13 / RFU, GNAQ / Fold change vs veh, GNAQ / RFU, CDK5R1 / Fold change vs veh, CDK5R1 / RFU, ZRANB3 / Fold change vs veh, ZRANB3 / RFU, CUL4A / Fold change vs veh, CUL4A / RFU, CCNY / Fold change vs veh, CCNY / RFU, UFL1 / Fold change vs veh, UFL1 / RFU, COG3 / Fold change vs veh, COG3 / RFU, DIAPH2 / Fold change vs veh, DIAPH2 / RFU, SKA2 / Fold change vs veh, SKA2 / RFU, AFF3 / Fold change vs veh, AFF3 / RFU, LMF1 / Fold change vs veh, LMF1 / RFU, IPO11 / Fold change vs veh, IPO11 / RFU, DFFB / Fold change vs veh, DFFB / RFU, FOXP1 / Fold change vs veh, FOXP1 / RFU, CARD8 / Fold change vs veh, CARD8 / RFU, STRN3 / Fold change vs veh, STRN3 / RFU, ADK / Fold change vs veh, ADK / RFU, RASSF2 / Fold change vs veh, RASSF2 / RFU, WIPF1 / Fold change vs veh, WIPF1 / RFU, LARP1B / Fold change vs veh, LARP1B / RFU, RASA1 / Fold change vs veh, RASA1 / RFU, RB1 / Fold change vs veh, RB1 / RFU, PPFIA1 / Fold change vs veh, PPFIA1 / RFU, MAT2A / Fold change vs veh, MAT2A / RFU, CCT5 / Fold change vs veh, CCT5 / RFU, WDR92 / Fold change vs veh, WDR92 / RFU, CUX1 / Fold change vs veh, CUX1 / RFU, TTC7A / Fold change vs veh, TTC7A / RFU, TMEM135 / Fold change vs veh, TMEM135 / RFU, DEPTOR / Fold change vs veh, DEPTOR / RFU, CPM / Fold change vs veh, CPM / RFU, DNAJB6 / Fold change vs veh, DNAJB6 / RFU, CACNA2D3 / Fold change vs veh, CACNA2D3 / RFU, DTX4 / Fold change vs veh, DTX4 / RFU, TFCP2 / Fold change vs veh, TFCP2 / RFU, GMCL1 /// GMCL1P1 / Fold change vs veh, GMCL1 /// GMCL1P1 / RFU, AEBP2 / Fold change vs veh, AEBP2 / RFU, SNHG1 /// SNORD22 /// SNORD25 /// SNORD26 /// SNORD27 /// SNORD28 /// SNORD29 /// SNORD31 / Fold change vs veh, SNHG1 /// SNORD22 /// SNORD25 /// SNORD26 /// SNORD27 /// SNORD28 /// SNORD29 /// SNORD31 / Fold change (Aza/veh), C12orf56 (ProbeSet 11735607_a_at) / Fold change (ACY-1035/veh), C12orf56 (ProbeSet 11735607_a_at) / Fold change (Aza/veh), FGFR1OP (ProbeSet 11751329_s_at) / Fold change (ACY-1035/veh), FGFR1OP (ProbeSet 11751329_s_at) / Fold change (Aza/veh), VPS36 (ProbeSet 11739960_a_at) / Fold change (ACY-1035/veh), VPS36 (ProbeSet 11739960_a_at) / RFU SYPL1 (11715823_x_at) / Fold change /veh SYPL1 (11715823_x_at) / RFU IGFBP7 (11715501_s_at) / Fold change /veh IGFBP7 (11715501_s_at) / RFU REEP3 (11722064_at) / Fold change /veh REEP3 (11722064_at) / RFU IGLL1 (11728026_x_at) / Fold change /veh IGLL1 (11728026_x_at): dose or concentration left out as unconfirmed
Conditions: MV-4-11 cells, 48 hours

In the case of `Nc1ccc(-c2cccs2)cc1NC(=O)c1ccc2c(c1)cc(C1CC1)n2CCN1CCOCC1` [ACY-1035], the “Fold change /veh PRB3 (11715151_x_at)” value is reported as 0.95.
